Consider twelve compounds from ChEMBL document CHEMBL5053531, “Development of BromoTag: A "Bump-and-Hole"-PROTAC System to Induce Potent, Rapid, and Selective Degradation of Tagged Target Proteins” (J Med Chem, 2021).

Each structure is given as a SMILES string. Activity calls are given as the source filed them. The rule behind the calls is not given here.

In one series the test system is CWR22R. The series can be described thus: cells. Conditions: Homo sapiens, 22Rv1, 48 h, read-out: pEC50 (converted).
For series [1], the target named is T1, von Hippel-Lindau disease tumor suppressor/Bromodomain-containing protein 2 (Homo sapiens, UniProt P25440+P40337). The series can be described thus: Bump and hole PROTAC activity at BromoTag-Brd2/VHL-bound E3 ligase in HEK293 cells assessed as Brd2 degradation at 0.001 to 10 uM measured after 6 hrs by Western blot analysis. It is filed as cell-based. The conditions noted are these: dose 0.001-10 µM. On the technique in general: In western blotting, separated proteins are transferred to a membrane and probed.
Target sequence in this assay (P25440 whole entry, looked up): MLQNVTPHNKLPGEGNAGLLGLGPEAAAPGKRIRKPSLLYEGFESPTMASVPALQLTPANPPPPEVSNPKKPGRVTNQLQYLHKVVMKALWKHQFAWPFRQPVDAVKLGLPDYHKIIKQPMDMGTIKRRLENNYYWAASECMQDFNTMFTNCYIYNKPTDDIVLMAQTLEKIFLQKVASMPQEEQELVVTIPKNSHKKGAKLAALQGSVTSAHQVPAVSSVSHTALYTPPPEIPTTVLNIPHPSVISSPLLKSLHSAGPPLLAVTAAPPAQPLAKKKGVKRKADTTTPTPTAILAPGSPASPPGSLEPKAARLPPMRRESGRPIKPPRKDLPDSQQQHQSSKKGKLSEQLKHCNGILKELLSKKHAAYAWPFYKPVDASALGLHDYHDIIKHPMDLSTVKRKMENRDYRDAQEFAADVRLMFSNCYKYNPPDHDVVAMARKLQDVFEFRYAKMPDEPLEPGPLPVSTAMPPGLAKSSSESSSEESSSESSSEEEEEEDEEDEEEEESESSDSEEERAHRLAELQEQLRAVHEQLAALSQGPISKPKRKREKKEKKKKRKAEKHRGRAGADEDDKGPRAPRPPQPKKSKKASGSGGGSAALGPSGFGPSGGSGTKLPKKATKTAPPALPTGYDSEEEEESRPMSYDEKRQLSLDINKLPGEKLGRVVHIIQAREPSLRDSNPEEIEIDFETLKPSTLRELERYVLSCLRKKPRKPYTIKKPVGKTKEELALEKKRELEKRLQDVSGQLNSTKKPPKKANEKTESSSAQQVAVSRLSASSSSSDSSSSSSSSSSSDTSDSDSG
Target sequence in this assay (P40337 whole entry, looked up): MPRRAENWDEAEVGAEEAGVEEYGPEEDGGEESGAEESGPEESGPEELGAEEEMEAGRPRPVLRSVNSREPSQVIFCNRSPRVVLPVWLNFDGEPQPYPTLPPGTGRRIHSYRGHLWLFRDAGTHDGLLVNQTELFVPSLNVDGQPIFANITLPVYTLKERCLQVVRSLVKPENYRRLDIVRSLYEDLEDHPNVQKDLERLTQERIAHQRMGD

Series [2] in a line: AUC (0 to infinity) in C57BL/6 mouse at 5 mg/kg, sc measured up to 8 hrs by LC-MS analysis. The series is classed as ADME, organism-based. Details: dose 5 mg/kg, time < 8 hrs, route sc. Conditions: in vivo.
Series [3] is described as follows: Bioavailability in C57BL/6 mouse at 5 mg/kg, sc measured up to 8 hrs by LC-MS analysis. The series is classed as ADME, organism-based. The conditions noted are these: in vivo.
Series [4] is described as follows: Half life in C57BL/6 mouse at 5 mg/kg, sc measured up to 8 hrs by LC-MS analysis. The series is classed as ADME, organism-based. Conditions: in vivo.
Series [5] in a line: Half life in C57BL/6 mouse at 5 mg/kg, iv measured up to 8 hrs by LC-MS analysis. The conditions noted are these: in vivo. It is filed as ADME, organism-based.
The nature of series [6]: MRT (0 to infinity) in C57BL/6 mouse at 5 mg/kg, iv measured up to 8 hrs by LC-MS analysis. The conditions noted are these: in vivo.
Series [7] deals with T1, von Hippel-Lindau disease tumor suppressor/Bromodomain-containing protein 2. The series can be described thus: Bump and hole PROTAC activity at BromoTag-Brd2/VHL-bound E3 ligase in HEK293 cells assessed as Brd2 degradation at 1 uM measured after 6 hrs by Western blot analysis. It is filed as cell-based.
Target sequence in this assay (P25440 whole entry, looked up): as the sequence (P25440 whole entry, looked up) above
Target sequence in this assay (P40337 whole entry, looked up): as the sequence (P40337 whole entry, looked up) above
Series [8] shares this target. The series can be described thus: Bump and hole PROTAC activity at BromoTag-Brd2/VHL-bound E3 ligase in HEK293 cells assessed as Brd2 degradation measured after 6 hrs by Western blot analysis. It is filed as cell-based.
Target sequence in this assay (P25440 whole entry): as the sequence (P25440 whole entry, looked up) above
Target sequence in this assay (P40337 whole entry): as the sequence (P40337 whole entry, looked up) above
Series [9] is described as follows: Stability in mouse plasma measured up to 60 mins. The conditions noted are these: 1 h. The series is classed as ADME, cell-free.

Description for CWR22R: Antiproliferative activity against human BET-sensitive 22Rv1 cells assessed as reduction in cell viability measured after 48 hrs by Celltiter-Glo assay

In the case of `CC[C@@H](C(=O)OCCOCCOCCOCC(=O)N[C@H](C(=O)N1C[C@@H](O)C[C@H]1C(=O)NCc1ccc(-c2scnc2C)cc1)C(C)(C)C)[C@@H]1N=C(c2ccc(Cl)cc2)c2c(sc(C)c2C)-n2c(C)nnc21`, the EC50 in the series with CWR22R is 5.01 µM.
In the case of `Cc1ncsc1-c1ccc(CNC(=O)[C@@H]2C[C@@H](O)CN2C(=O)[C@@H](NC(=O)COCCOCCOCCOC(=O)C(C)C2N=C(c3ccc(Cl)cc3)c3c(sc(C)c3C)-n3c(C)nnc32)C(C)(C)C)cc1` (mixture of isomers), in series [1], the Brd2 degradation activity entry was “Active”.
In series [2], `Cc1ncsc1-c1ccc(CNC(=O)[C@@H]2C[C@@H](O)CN2C(=O)[C@@H](NC(=O)COCCOCCOCCNC(=O)C[C@@H]2N=C(c3ccc(Cl)cc3)c3c(sc(C)c3C)-n3c(C)nnc32)C(C)(C)C)cc1` had a total exposure AUC(0-inf) of 3.76 µM·h. Moreover, the bioavailability in [3] worked out at 83%. The half-life in series [4] was 2.95 h; in [5] it was 1.04 h. For the same compound, the MRT inf in [6] was found to be 0.34 h.
As for `COc1ccc2c(c1)-n1c(C)nnc1[C@H]([C@@H](C)C(=O)NCCOCCOCCOCC(=O)N[C@H](C(=O)N1C[C@H](O)C[C@H]1C(=O)NCc1ccc(-c3scnc3C)cc1)C(C)(C)C)N=C2c1ccc(Cl)cc1` (mixture of isomers), the outcome in series [7] was inactive.
Consider `CCC(C(=O)OCCOCCCOCC(=O)N[C@H](C(=O)N1C[C@H](O)C[C@H]1C(=O)N[C@@H](C)c1ccc(-c2scnc2C)cc1)C(C)(C)C)C1N=C(c2ccc(Cl)cc2)c2c(sc(C)c2C)-n2c(C)nnc21` (mixture of isomers), for which, in series [8], the pDC50 was found to be 7.8.
For the compound `Cc1ncsc1-c1ccc([C@H](C)NC(=O)[C@@H]2C[C@@H](O)CN2C(=O)[C@@H](NC(=O)COCCCOCCNC(=O)C(C)C2N=C(c3ccc(Cl)cc3)c3c(sc(C)c3C)-n3c(C)nnc32)C(C)(C)C)cc1` (mixture of isomers), the Brd2 degradation activity entry in series [1] is “Active”.
For the compound `CC[C@@H](C(=O)NCCOCCOCCOCC(=O)N[C@H](C(=O)N1C[C@H](O)C[C@H]1C(=O)NCc1ccc(-c2scnc2C)cc1)C(C)(C)C)[C@@H]1N=C(c2ccc(Cl)cc2)c2ccc(OC)cc2-n2c(C)nnc21` (mixture of isomers), the outcome in [7] was inactive.
Take `CC[C@@H](C(=O)OCCOCCOCCOCC(=O)N[C@H](C(=O)N1C[C@H](O)C[C@H]1C(=O)NCc1ccc(-c2scnc2C)cc1)C(C)(C)C)[C@@H]1N=C(c2ccc(Cl)cc2)c2c(sc(C)c2C)-n2c(C)nnc21`: the Stability entry in series [9] is recorded as “Stable”. Also, the bioavailability in [3] is 140%.
Take `Cc1ncsc1-c1ccc([C@H](C)NC(=O)[C@@H]2C[C@@H](O)CN2C(=O)[C@@H](NC(=O)COCCCOCCOC(=O)C(C)C2N=C(c3ccc(Cl)cc3)c3c(sc(C)c3C)-n3c(C)nnc32)C(C)(C)C)cc1` (mixture of isomers): in [1], the Brd2 degradation activity entry was “Active”.
`CC[C@@H](C(=O)NCCOCCOCCOCC(=O)N[C@H](C(=O)N1C[C@H](O)C[C@H]1C(=O)NCc1ccc(-c2scnc2C)cc1)C(C)(C)C)[C@@H]1N=C(c2ccc(Cl)cc2)c2cc(OC)ccc2-n2c(C)nnc21` (mixture of isomers): the result in series [7] was inactive.
For the compound `Cc1ncsc1-c1ccc(CNC(=O)[C@@H]2C[C@@H](O)CN2C(=O)[C@@H](NC(=O)COCCOCCOCCNC(=O)C(C)C2N=C(c3ccc(Cl)cc3)c3c(sc(C)c3C)-n3c(C)nnc32)C(C)(C)C)cc1` (mixture of isomers), the Brd2 degradation activity result in [1] was “Active”.
For the compound `CCC(C(=O)NCCOCCCOCC(=O)N[C@H](C(=O)N1C[C@H](O)C[C@H]1C(=O)N[C@@H](C)c1ccc(-c2scnc2C)cc1)C(C)(C)C)C1N=C(c2ccc(Cl)cc2)c2c(sc(C)c2C)-n2c(C)nnc21` (mixture of isomers), the Brd2 degradation activity result in series [1] is “Active”.

The term AUC(0-inf) denotes total exposure, with the tail of the curve extrapolated. The low end stands for low exposure, the high end for high exposure. For orientation: half-life means how long it takes for the measured level to halve. A low value points to rapid decline. As a reminder, the MRT inf is a mean duration of stay, worked out from the concentration-time curve.
